The values that follow come from US20040248775A1, “Methods for screening inhibitors of apoptosis” (Wyeth, priority 2003, published 2004).

The target in this assay is T1, His6-NALP1 wild-type (Homo sapiens, UniProt Q9C000).
T1 construct: made in house; host or cells: COS-7 cells, transient transfection, Ni-NTA purification
T1 sequence (Q9C000 1-1473): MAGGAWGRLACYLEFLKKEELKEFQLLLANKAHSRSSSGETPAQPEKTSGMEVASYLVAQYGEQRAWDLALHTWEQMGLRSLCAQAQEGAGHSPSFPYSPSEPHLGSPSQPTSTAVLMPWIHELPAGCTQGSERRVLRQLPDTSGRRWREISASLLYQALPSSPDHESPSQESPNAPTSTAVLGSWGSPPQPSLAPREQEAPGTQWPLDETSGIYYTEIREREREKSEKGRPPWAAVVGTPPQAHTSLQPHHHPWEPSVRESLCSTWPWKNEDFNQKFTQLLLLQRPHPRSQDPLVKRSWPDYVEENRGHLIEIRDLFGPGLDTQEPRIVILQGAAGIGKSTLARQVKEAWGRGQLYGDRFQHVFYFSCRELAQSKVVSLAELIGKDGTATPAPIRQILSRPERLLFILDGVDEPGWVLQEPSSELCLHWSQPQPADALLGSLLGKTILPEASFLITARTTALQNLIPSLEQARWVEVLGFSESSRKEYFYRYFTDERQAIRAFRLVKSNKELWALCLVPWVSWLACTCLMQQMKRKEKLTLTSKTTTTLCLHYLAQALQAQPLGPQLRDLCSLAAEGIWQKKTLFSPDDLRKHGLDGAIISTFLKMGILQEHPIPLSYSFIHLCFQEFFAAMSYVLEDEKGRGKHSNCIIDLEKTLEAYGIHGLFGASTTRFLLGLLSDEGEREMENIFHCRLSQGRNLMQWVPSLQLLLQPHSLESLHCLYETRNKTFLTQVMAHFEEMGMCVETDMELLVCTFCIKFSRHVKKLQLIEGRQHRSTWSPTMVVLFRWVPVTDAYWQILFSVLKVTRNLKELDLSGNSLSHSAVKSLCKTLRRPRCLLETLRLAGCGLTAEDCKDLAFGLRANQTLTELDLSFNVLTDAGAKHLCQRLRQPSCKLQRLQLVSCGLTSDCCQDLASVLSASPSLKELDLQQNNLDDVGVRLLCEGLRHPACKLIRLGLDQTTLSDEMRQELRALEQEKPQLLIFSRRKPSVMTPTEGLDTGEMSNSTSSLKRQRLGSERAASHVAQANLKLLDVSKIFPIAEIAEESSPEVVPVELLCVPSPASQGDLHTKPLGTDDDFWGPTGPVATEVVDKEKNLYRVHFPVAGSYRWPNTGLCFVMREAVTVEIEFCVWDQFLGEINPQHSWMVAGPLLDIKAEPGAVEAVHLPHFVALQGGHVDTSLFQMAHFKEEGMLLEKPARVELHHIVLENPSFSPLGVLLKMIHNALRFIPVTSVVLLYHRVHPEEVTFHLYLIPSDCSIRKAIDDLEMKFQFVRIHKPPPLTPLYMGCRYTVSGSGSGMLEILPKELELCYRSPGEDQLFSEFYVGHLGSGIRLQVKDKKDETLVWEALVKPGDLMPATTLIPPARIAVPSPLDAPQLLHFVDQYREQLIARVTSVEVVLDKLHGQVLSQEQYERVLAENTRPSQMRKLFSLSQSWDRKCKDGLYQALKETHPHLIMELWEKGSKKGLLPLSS
The assay is described as follows: Ni flashplate dATPα35S binding assay, wild-type His6-NALP1. The following applies: 8 nM dATPα35S displaced by non-radiolabeled dATP. As for the experimental part: Production of purified NALP-Flashplate binding assay. NALP1 protein for in vitro binding assays was purified from transiently transfected cells. COS-7 cells were plated in DMEM, 10% fetal calf serum with amino acid supplements and antibiotics and allowed to grow to approximately 50% confluency. Large-scale preparations were performed in Cell Factories (NUNC) with approximately 600 μg plasmid DNA. Polyfect transfection reagent (Qiagen) was used as described by the manufacturer. After 24 hours, cells were collected by trypsinization, washed with fresh medium and then with PBS. Cells were lysed by resuspension in 10× cell volume of lysis buffer (140 mM NaCl, 0.1% Triton-X100, 0.1 mM DTT, 20 mM HEPES at pH 7.4 and protease inhibitor cocktail (Roche Diagnostics BmbH)). Lysates were centrifuged at approximately 7400×g for 30 minutes and supernatants were supplemented with glycerol to a final concentration of 10% and stored at −70° C. until purification. Protein concentrations were measured and samples normalized. Extracts were mixed with 1 ml Ni-NTA agarose equilibrated with the same buffer for 1 hour at 4° C. in the tube. Disposable columns were filled with the resin and flow-through collected. […] Reactions were stopped by aspirating solutions and washed once with Buffer B. Plates were counted in a Top Count scintillation counter (Packard).

As for `Nc1ncnc2c1ncn2[C@H]1C[C@H](O)[C@@H](COP(=O)(O)OP(=O)(O)OP(=O)(O)O)O1` [dATP], the “specific binding of dATP to wild-type NALP1” value was “specific binding”.
